The EC50 is the concentration giving half of the maximal effect. Higher therefore signals lower potency in that assay.

The values below come from patent US20230265094A1, “RIPK1 INHIBITORS AND METHODS OF USE” (Merck Sharp & Dohme LLC, priority 2020, published 2023).

Molecules are shown by their SMILES. Where a name gives a salt, the structure may show the parent alone.

This assay deals with T1, RIPK1 (Homo sapiens, UniProt Q13546).
T1 construct: recombinant GST-RIPK1 kinase domain (residues 1-327) enzyme produced from baculovirus-transfected Sf21 cells; host or cells: baculovirus-transfected Sf21 insect cells
T1 sequence (Q13546 1-327): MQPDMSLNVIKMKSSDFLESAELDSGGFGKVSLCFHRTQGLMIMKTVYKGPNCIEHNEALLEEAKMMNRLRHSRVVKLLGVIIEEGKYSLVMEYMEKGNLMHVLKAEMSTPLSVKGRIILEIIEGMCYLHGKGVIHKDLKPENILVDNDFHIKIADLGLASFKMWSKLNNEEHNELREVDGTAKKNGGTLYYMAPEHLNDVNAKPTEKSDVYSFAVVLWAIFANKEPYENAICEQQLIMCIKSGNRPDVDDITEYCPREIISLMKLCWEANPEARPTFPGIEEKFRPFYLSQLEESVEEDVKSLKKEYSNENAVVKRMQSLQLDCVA
In words: RIPK1-ADP-Glo enzymatic assay. Format: biochemical. The following applies: ADP-Glo luminescent ADP detection; 25 nM GST-RIPK1 kinase domain (residues 1-327), 300 μM ATP, dephosphorylated-MBP substrate; 30 min pre-incubation, 150 min reaction. The protocol: RIPK1-ADP-Glo Enzymatic Assay
The enzymatic activity of RIPK1 is measured using an assay derived from ADP-Glo kit (Promega™), which provides a luminescent-based ADP detection system. Specifically, the ADP generated by RIPK1 kinase is proportionally detected as luminescent signals in a homogenous fashion. In this context, the assessment of the inhibitory effect of small molecules (EC50) is measured by the effectiveness of the compounds to inhibit the ATP to ADP conversion by RIPK1.
In this assay, the potency (EC50) of each compound was determined from a ten-point (1:3 serial dilution; top compound concentration of 100000 nM) titration curve using the following outlined procedure. To each well of a white ProxiPlus 384 well-plate, 30 nL of compound (1% DMSO in final assay volume of 3 μL) was dispensed, followed by the addition of 2 μL of 1×assay buffer (25 mM Hepes 7.3, 20 mM MgCl2, 50 mM NaCl, 1 mM DTT, 0.005% Tween20, and 0.02% BSA) containing 37.5 nM of GST-RIPK1 (recombinant GST-RIPK1 kinase domain (residues 1-327) enzyme produced from baculovirus-transfected Sf21 cells: MW=62 kDa). Plates were placed in an ambient temperature humidified chamber for a 30 minutes pre-incubation with compound. Subsequently, each reaction was initiated by the addition of 1 μL 1×assay buffer containing 900 μM ATP and […] dephosphorylated-MBP substrate. The final reaction in each well of 3 μL consists of 25 nM of GST-RIPK1, 300 μM ATP, and 3 μM dephosphorylated-MBP. Kinase reactions were allowed to proceed for 150 minutes prior to adding ADP-Glo reagents per Promega's outlined kit protocol. Dose-response curves were generated by plotting percent effect (% product conversion; Y-axis) vs. Log10 compound concentrations (X-axis). EC50 values were calculated using a non-linear regression, four-parameters sigmoidal dose-response model.
(ADP-Glo first removes unused ATP, then detects ADP through luciferase.)
Consider `Cc1noc(C2CN(C(=O)N3N=CC[C@H]3c3cc(F)cc(F)c3)C2)n1` [Example 1.55, (S)-(5-(3,5-difluorophenyl)-4,5-dihydro-1H-pyrazol-1-yl)(3-(3-methyl-1,2,4-oxadiazol-5-yl)azetidin-1-yl)methanone], for which the EC50 worked out at 175 nM.
On to `O=C(N1CC(S(=O)(=O)c2ccc(Br)cc2)C1)N1N=CC[C@H]1c1cc(F)cc(F)c1` [Example 1.57, (S)-(3-((4-bromophenyl)sulfonyl)azetidin-1-yl)(5-(3,5-difluorophenyl)-4,5-dihydro-1H-pyrazol-1-yl)methanone], for which the 50% effective concentration (EC50) amounted to 12.4 nM.
As for `O=C(N1CC(Oc2ccccn2)C1)N1N=CC[C@H]1c1cc(F)cc(F)c1` [Example 1.58, (S)-(5-(3,5-difluorophenyl)-4,5-dihydro-1H-pyrazol-1-yl)(3-(pyridin-2-yloxy)azetidin-1-yl)methanone], the figure is 1380 nM; as for `O=C(N1CC(OC2CCCCC2)C1)N1N=CC[C@H]1c1cc(F)cc(F)c1` [Example 1.59, (S)-(3-(cyclohexyloxy)azetidin-1-yl)(5-(3,5-difluorophenyl)-4,5-dihydro-1H-pyrazol-1-yl)methanone], 245 nM; as for `O=C(N1CCC1)N1N=CC[C@H]1c1cc(F)cc(F)c1` [Example 1.60, (S)-azetidin-1-yl(5-(3,5-difluorophenyl)-4,5-dihydro-1H-pyrazol-1-yl)methanone], 64.5 nM.
`N#Cc1ccc(OC2CN(C(=O)N3N=CC[C@H]3c3cc(F)cc(F)c3)C2)cn1` [Example 1.61, (S)-5-((1-(5-(3,5-difluorophenyl)-4,5-dihydro-1H-pyrazole-1-carbonyl)azetidin-3-yl)oxy)picolinonitrile] returned an EC50 of 26.3 nM.
`COC1CN(C(=O)N2N=CC[C@H]2c2cc(F)cc(F)c2)C1` [Example 2.1, (S)-(5-(3,5-difluorophenyl)-4,5-dihydro-1H-pyrazol-1-yl)(3-methoxyazetidin-1-yl)methanone] registered an EC50 of 11 nM.
As for `CCOC1CN(C(=O)N2N=CC[C@H]2c2cc(F)cc(F)c2)C1` [Example 2.2, (S)-(5-(3,5-difluorophenyl)-4,5-dihydro-1H-pyrazol-1-yl)(3-ethoxyazetidin-1-yl)methanone], the figure is 27.2 nM; as for `O=C(N1CC(Nc2ccccc2)C1)N1N=CC[C@H]1c1cc(F)cc(F)c1` [Example 2.3, (S)-(5-(3,5-difluorophenyl)-4,5-dihydro-1H-pyrazol-1-yl)(3-(phenylamino)azetidin-1-yl)methanone], 6.7 nM; as for `O=C(N1CC(Oc2ccccc2)C1)N1N=CC[C@H]1c1ccc(Cl)cc1` [Example 2.6, (S)-(5-(4-chlorophenyl)-4,5-dihydro-1H-pyrazol-1-yl)(3-phenoxyazetidin-1-yl)methanone], 9.6 nM.
For `CC(C)C1(O)CN(C(=O)N2N=CC[C@H]2c2ccc(Cl)cc2)C1` [Example 2.7, (S)-(5-(4-chlorophenyl)-4,5-dihydro-1H-pyrazol-1-yl)(3-hydroxy-3-isopropylazetidin-1-yl)methanone], the concentration for a half-maximal effect (EC50) came out at 5160 nM.
As for `O=C(N1CC(O)(c2ccccc2)C1)N1N=CC[C@H]1c1ccc(Cl)cc1` [Example 2.8, (S)-(5-(4-chlorophenyl)-4,5-dihydro-1H-pyrazol-1-yl)(3-hydroxy-3-phenylazetidin-1-yl)methanone], the figure is 2430 nM; as for `O=C(N1CC(Nc2ccccc2)C1)N1N=CC[C@H]1c1ccc(Cl)cc1` [Example 2.9, (S)-(5-(4-chlorophenyl)-4,5-dihydro-1H-pyrazol-1-yl)(3-(phenylamino)azetidin-1-yl)methanone], 22.7 nM; as for `O=C(N1CC(Cc2ccccc2)C1)N1N=CC[C@H]1c1ccc(Cl)cc1` [Example 2.10, (S)-(3-benzylazetidin-1-yl)(5-(4-chlorophenyl)-4,5-dihydro-1H-pyrazol-1-yl)methanone], 11.4 nM.
`O=C(N1CC(O)(C(F)(F)F)C1)N1N=CC[C@H]1c1ccc(Cl)cc1` [Example 2.11, (S)-(5-(4-chlorophenyl)-4,5-dihydro-1H-pyrazol-1-yl)(3-hydroxy-3-(trifluoromethyl)azetidin-1-yl)methanone] yielded an EC50 of 578 nM.
The same measure for `CC(C)OC1CN(C(=O)N2N=CC[C@H]2c2ccc(Cl)cc2)C1` [Example 2.12, (S)-(5-(4-chlorophenyl)-4,5-dihydro-1H-pyrazol-1-yl)(3-isopropoxyazetidin-1-yl)methanone]: 10.6 nM.
The same measure for `COC1(C)CN(C(=O)N2N=CC[C@H]2c2ccc(Cl)cc2)C1` [Example 2.13, (S)-(5-(4-chlorophenyl)-4,5-dihydro-1H-pyrazol-1-yl)(3-methoxy-3-methylazetidin-1-yl)methanone]: 64.9 nM.
`O=C(N1CC(Oc2ccccc2)C1)N1N=CC[C@H]1c1cccnc1` [Example 2.14, (S)-(3-phenoxyazetidin-1-yl)(5-(pyridin-3-yl)-4,5-dihydro-1H-pyrazol-1-yl)methanone] had an EC50 of 20.5 nM.
As for `O=C(N1CC(Oc2ccccc2)C1)N1N=CC[C@@H]1c1cccnc1` [Example 2.15, (R)-(3-phenoxyazetidin-1-yl)(5-(pyridin-3-yl)-4,5-dihydro-1H-pyrazol-1-yl)methanone], the figure is 95.6 nM; as for `O=C(N1CC(Oc2ccccc2)C1)N1N=CC[C@H]1C12CCC(CC1)C2` [Example 2.16, ((5S)-5-(bicyclo[2.2.1]heptan-1-yl)-4,5-dihydro-1H-pyrazol-1-yl)(3-phenoxyazetidin-1-yl)methanone], 92.7 nM.
In the case of `CN(c1ccccc1)C1CN(C(=O)N2N=CC[C@H]2c2cc(F)cc(F)c2)C1` [Example 2.17, (S)-(5-(3,5-difluorophenyl)-4,5-dihydro-1H-pyrazol-1-yl)(3-(methyl(phenyl)amino)azetidin-1-yl)methanone, TFA salt], the EC50 was determined as 7.1 nM.
The compound `C[C@H]1[C@@H](Oc2ccc(F)cc2)CN1C(=O)N1N=CC[C@H]1c1cncc(F)c1` [Example 2.18, ((2S,3S)-3-(4-fluorophenoxy)-2-methylazetidin-1-yl)((S)-5-(5-fluoropyridin-3-yl)-4,5-dihydro-1H-pyrazol-1-yl)methanone] showed a concentration for a half-maximal effect (EC50) of 10 nM.
Take `Cc1ncc([C@@H]2CC=NN2C(=O)N2C[C@H](Oc3ccc(F)cc3)[C@@H]2C)cc1F` [Example 2.19, ((S)-5-(5-fluoro-6-methylpyridin-3-yl)-4,5-dihydro-1H-pyrazol-1-yl)((2S,3S)-3-(4-fluorophenoxy)-2-methylazetidin-1-yl)methanone]: the response was half-maximal at 12.3 nM (EC50).
As for `C[C@@H]1[C@H](Oc2ccc(F)cc2)CN1C(=O)N1N=CC[C@H]1c1ccc(Cl)cc1` [Example 2.20, ((S)-5-(4-chlorophenyl)-4,5-dihydro-1H-pyrazol-1-yl)((2R,3R)-3-(4-fluorophenoxy)-2-methylazetidin-1-yl)methanone], the figure is 25.7 nM.
The same measure for `C[C@@H]1[C@H](Oc2ccc(F)cc2)CN1C(=O)N1N=CC[C@H]1c1cc(F)cc(F)c1` [Example 2.21, ((S)-5-(3,5-difluorophenyl)-4,5-dihydro-1H-pyrazol-1-yl)((2R,3R)-3-(4-fluorophenoxy)-2-methylazetidin-1-yl)methanone]: 39.1 nM.
As for `C[C@@H]1[C@@H](Oc2ccc(F)cc2)CN1C(=O)N1N=CC[C@H]1c1cncc(F)c1` [Example 2.22, ((2R,3S)-3-(4-fluorophenoxy)-2-methylazetidin-1-yl)((S)-5-(5-fluoropyridin-3-yl)-4,5-dihydro-1H-pyrazol-1-yl)methanone], the figure is 7.6 nM; as for `Cc1ncc([C@@H]2CC=NN2C(=O)N2C[C@H](Oc3ccc(F)cc3)[C@H]2C)cc1F` [Example 2.23, ((S)-5-(5-fluoro-6-methylpyridin-3-yl)-4,5-dihydro-1H-pyrazol-1-yl)((2R,3S)-3-(4-fluorophenoxy)-2-methylazetidin-1-yl)methanone], 10.1 nM.
Regarding `C[C@@H]1[C@@H](Oc2ccc(F)cc2)CN1C(=O)N1N=CC[C@H]1c1cncc(C#N)c1` [Example 2.24, 5-((S)-1-((2R,3S)-3-(4-fluorophenoxy)-2-methylazetidine-1-carbonyl)-4,5-dihydro-1H-pyrazol-5-yl)nicotinonitrile], the EC50 came to 11.4 nM.
